Values joined by “and” are separate entries in the source; they are usually repeats but may differ in a detail not shown here. Identical values can stand only once. Inconclusive results and toxic doses are left out. Cut-off read from the data, not from the text of the source: active = T/C of 150% or more; inactive = T/C below 125%.
System: L1210 leukemia ip in BDF1 mice, survival T/C
Experiment: NCI In Vivo Anticancer Drug Screen. Data for tumor model L1210 Leukemia (intraperitoneal) in B6D2F1 (BDF1) mice
Details: endpoint: mean survival time, higher = longer survival
Procedure, shortened: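 Mice bearing the transplanted tumor received compound or vehicle. Survival of the treated group was divided by that of the vehicle-treated control group to give the ratio.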

[1] = dose: 100.0 mg/kg/injection, schedule: Q04DX002 (ip), vehicle: saline with Tween-80
[2] = dose: 200.0 mg/kg/injection, schedule: Q04DX002 (ip), vehicle: saline with Tween-80
[3] = dose: 400.0 mg/kg/injection, schedule: Q04DX002 (ip), vehicle: saline with Tween-80
[4] = dose: 100.0 mg/kg/injection, schedule: Q01DX009 (ip), vehicle: Klucel (hydroxypropylcellulose) (HPC)
[5] = dose: 100.0 mg/kg/injection, schedule: Q04DX003 (ip), vehicle: Klucel (hydroxypropylcellulose) (HPC)
[6] = dose: 200.0 mg/kg/injection, schedule: Q01DX009 (ip), vehicle: Klucel (hydroxypropylcellulose) (HPC)
[7] = dose: 200.0 mg/kg/injection, schedule: Q04DX003 (ip), vehicle: Klucel (hydroxypropylcellulose) (HPC)
[8] = dose: 400.0 mg/kg/injection, schedule: Q01DX009 (ip), vehicle: Klucel (hydroxypropylcellulose) (HPC)
[9] = dose: 400.0 mg/kg/injection, schedule: Q04DX003 (ip), vehicle: Klucel (hydroxypropylcellulose) (HPC)
[10] = dose: 100.0 mg/kg/injection, schedule: Q01DX001 (ip), vehicle: saline
[11] = dose: 200.0 mg/kg/injection, schedule: Q01DX001 (ip), vehicle: saline
[12] = dose: 400.0 mg/kg/injection, schedule: Q01DX001 (ip), vehicle: saline
[13] = dose: 100.0 mg/kg/injection, schedule: Q04DX003 (ip), vehicle: saline with Tween-80
[14] = dose: 200.0 mg/kg/injection, schedule: Q04DX003 (ip), vehicle: saline with Tween-80
[15] = dose: 400.0 mg/kg/injection, schedule: Q04DX003 (ip), vehicle: saline with Tween-80

Measured: T/C

O=C([S][Pb]([c]1ccccc1)([c]1ccccc1)[c]1ccccc1)c1ccccc1
inactive: dose: 2.0 mg/kg/injection, schedule: Q01DX009 (ip), vehicle: Klucel (hydroxypropylcellulose) (HPC) 109 % of control | dose: 2.0 mg/kg/injection, schedule: Q04DX003 (ip), vehicle: Klucel (hydroxypropylcellulose) (HPC) 89 % of control | dose: 4.0 mg/kg/injection, schedule: Q01DX009 (ip), vehicle: Klucel (hydroxypropylcellulose) (HPC) 123 % of control | dose: 4.0 mg/kg/injection, schedule: Q04DX003 (ip), vehicle: Klucel (hydroxypropylcellulose) (HPC) 97 % of control | dose: 8.0 mg/kg/injection, schedule: Q01DX009 (ip), vehicle: Klucel (hydroxypropylcellulose) (HPC) 90 % of control | dose: 8.0 mg/kg/injection, schedule: Q04DX003 (ip), vehicle: Klucel (hydroxypropylcellulose) (HPC) 94 % of control and 97 % of control | dose: 11.0 mg/kg/injection, schedule: Q04DX003 (ip), vehicle: Klucel (hydroxypropylcellulose) (HPC) 100 % of control

COc1cc(C2=N/C(=C\c3cc(Br)cc(Br)c3O)C(=O)O2)cc(OC)c1OC
inactive: dose: 25.0 mg/kg/injection, schedule: Q04DX002 (ip), vehicle: saline with Tween-80 97 % of control | dose: 50.0 mg/kg/injection, schedule: Q04DX002 (ip), vehicle: saline with Tween-80 90 % of control | [1] 90 % of control | [2] 95 % of control | [3] 95 % of control

N#CN(Cc1ccccc1)Cc1ccccc1
inactive: [4] 100 % of control | [5] 101 % of control | [6] 105 % of control | [7] 102 % of control | [8] 109 % of control | [9] 95 % of control

COc1c(OC)c2c3c(c(-c4c(C)cc5c(C(C)C)c(OC)c(OC)c6c5c4OC6=O)c(C)cc3c1C(C)C)OC2=O
inactive: dose: 75.0 mg/kg/injection, schedule: Q04DX003 (ip), vehicle: Klucel (hydroxypropylcellulose) (HPC) 105 % of control | dose: 150.0 mg/kg/injection, schedule: Q04DX003 (ip), vehicle: Klucel (hydroxypropylcellulose) (HPC) 92 % of control | dose: 300.0 mg/kg/injection, schedule: Q04DX003 (ip), vehicle: Klucel (hydroxypropylcellulose) (HPC) 92 % of control

COc1cccc(/C2=C/CCCCCC2)c1
inactive: dose: 50.0 mg/kg/injection, schedule: Q01DX009 (ip), vehicle: acetone 95 % of control | dose: 100.0 mg/kg/injection, schedule: Q01DX009 (ip), vehicle: acetone 107 % of control | dose: 100.0 mg/kg/injection, schedule: Q04DX003 (ip), vehicle: acetone 100 % of control | dose: 200.0 mg/kg/injection, schedule: Q01DX009 (ip), vehicle: acetone 93 % of control | dose: 200.0 mg/kg/injection, schedule: Q04DX003 (ip), vehicle: acetone 105 % of control | dose: 400.0 mg/kg/injection, schedule: Q04DX003 (ip), vehicle: acetone 91 % of control

CCOC(=O)C(C(=O)OCC)=C(C#N)c1c[nH]c2ccccc12
inactive: [4] 103 % of control | [5] 104 % of control | [6] 96 % of control | [7] 95 % of control | [8] 92 % of control | [9] 96 % of control

CCOC(=O)C(=CN1CCCCCC1)C(=O)OCC
inactive: dose: 100.0 mg/kg/injection, schedule: Q04DX003 (ip), vehicle: saline 106 % of control | dose: 200.0 mg/kg/injection, schedule: Q04DX003 (ip), vehicle: saline 97 % of control | dose: 400.0 mg/kg/injection, schedule: Q04DX003 (ip), vehicle: saline 89 % of control

CCCCCCCCCCCCCCCCCC(=O)NCNC(=O)CCCCCCCCCCCCCCCCC
inactive: dose: 9.37 mg/kg/injection, schedule: Q01DX009 (ip), vehicle: saline with Tween-80 92 % of control | dose: 18.75 mg/kg/injection, schedule: Q01DX009 (ip), vehicle: saline with Tween-80 90 % of control | dose: 37.5 mg/kg/injection, schedule: Q01DX009 (ip), vehicle: saline with Tween-80 86 % of control and 89 % of control | dose: 37.5 mg/kg/injection, schedule: Q04DX003 (ip), vehicle: saline with Tween-80 89 % of control | dose: 75.0 mg/kg/injection, schedule: Q04DX003 (ip), vehicle: saline with Tween-80 89 % of control | dose: 150.0 mg/kg/injection, schedule: Q04DX003 (ip), vehicle: saline with Tween-80 87 % of control

C#CC1CC2C3CCC4=CC(=O)CCC4(C)C3CCC2(C)C1N(C)C (configuration not stated)
inactive: dose: 50.0 mg/kg/injection, schedule: Q01DX001 (sc), vehicle: steriod suspending solution 98 % of control | dose: 100.0 mg/kg/injection, schedule: Q01DX001 (sc), vehicle: steriod suspending solution 104 % of control

O=C(O)CCc1ccsc1
inactive: [10] 94 % of control | [11] 100 % of control | [12] 102 % of control

OC(CCCCC(O)(c1ccccc1)c1ccccc1)(c1ccccc1)c1ccccc1
inactive: [13] 89 % of control | [14] 94 % of control | [15] 96 % of control

O=C1O/C(=C/c2ccccc2)C(O)=C1c1ccccc1
inactive: [1] 93 % of control | [2] 103 % of control

COc1cc(/C=C(\C#N)c2cccc3ccccc23)cc(OC)c1OC
inactive: [5] 107 % of control | [7] 103 % of control | [9] 94 % of control

CCCCCCCCCCCC(=O)NC(=S)Nc1ccc(C(=O)O)cc1
inactive: dose: 100.0 mg/kg/injection, schedule: Q01DX001 (ip), vehicle: saline with Tween-80 103 % of control | dose: 100.0 mg/kg/injection, schedule: Q01DX009 (ip), vehicle: saline with Tween-80 98 % of control and 101 % of control | [1] 102 % of control and 105 % of control | [13] 101 % of control | dose: 200.0 mg/kg/injection, schedule: Q01DX001 (ip), vehicle: saline with Tween-80 102 % of control | dose: 200.0 mg/kg/injection, schedule: Q01DX009 (ip), vehicle: saline with Tween-80 93 % of control and 103 % of control | [2] 100 % of control and 112 % of control | [14] 98 % of control | dose: 400.0 mg/kg/injection, schedule: Q01DX001 (ip), vehicle: saline with Tween-80 96 % of control | dose: 400.0 mg/kg/injection, schedule: Q01DX009 (ip), vehicle: saline with Tween-80 101 % of control and 92 % of control | [3] 103 % of control and 115 % of control | [15] 101 % of control

CC1CN=C(c2ccc(O)c(O)c2)S1 (configuration not stated)
inactive: dose: 100.0 mg/kg/injection, schedule: Q04DX002 (ip), vehicle: saline 107 % of control | dose: 200.0 mg/kg/injection, schedule: Q04DX002 (ip), vehicle: saline 107 % of control | dose: 400.0 mg/kg/injection, schedule: Q04DX002 (ip), vehicle: saline 100 % of control

CN(C)c1ccc(NC(=O)/C=C/C(=O)O)cc1
inactive: [13] 108 % of control | [14] 101 % of control | [15] 101 % of control

CC(=O)Nc1ccccc1I
inactive: [4] 104 % of control | [6] 96 % of control | [8] 95 % of control

CC1C[N+](C)(C)NC1=O (configuration not stated)
inactive: [10] 98 % of control | dose: 100.0 mg/kg/injection, schedule: Q01DX009 (ip), vehicle: saline 103 % of control | [11] 103 % of control | dose: 200.0 mg/kg/injection, schedule: Q01DX009 (ip), vehicle: saline 107 % of control | [12] 92 % of control | dose: 400.0 mg/kg/injection, schedule: Q01DX009 (ip), vehicle: saline 91 % of control
